Where “and” joins values, the source holds several entries; their conditions need not be identical. Equal entries are not always repeated.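 Protocol summary: plate cells (96-well), add compound at 5 concentrations, incubate 48 h, interpolate endpoints linearly. At the GI50, growth is halved. Definition used: TGI = concentration required for complete inhibition of growth.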
Tests used:
Assay in all cases: NCI anticancer screen, dose series, 48 h; in the data active = GI50 below about 0.43 µM; inactive = the rest
SF-539 CNS = system: SF-539 CNS
U251 CNS = system: U251 CNS
M19-MEL melanoma = system: M19-MEL melanoma
LXFL 529 NSCLC = system: LXFL 529 NSCLC
LOX IMVI melanoma = system: LOX IMVI melanoma
SK-MEL-28 melanoma = system: SK-MEL-28 melanoma
UACC-257 melanoma = system: UACC-257 melanoma
CAKI-1 renal = system: CAKI-1 renal
DMS 114 small cell lung = system: DMS 114 small cell lung
XF 498 CNS = system: XF 498 CNS
KM20L2 colon = system: KM20L2 colon
K-562 leukemia = system: K-562 leukemia
DMS 273 small cell lung = system: DMS 273 small cell lung
OVCAR-5 ovarian = system: OVCAR-5 ovarian
OVCAR-8 ovarian = system: OVCAR-8 ovarian
NCI-H460 lung = system: NCI-H460 lung
HOP-18 NSCLC = system: HOP-18 NSCLC
SNB-19 CNS = system: SNB-19 CNS
DLD-1 colon = system: DLD-1 colon
TK-10 renal = system: TK-10 renal
CCRF-CEM leukemia = system: CCRF-CEM leukemia
A549 NSCLC = system: A549 NSCLC
KM12 colon = system: KM12 colon
NCI-H226 lung = system: NCI-H226 lung
HCT-15 colon = system: HCT-15 colon
COLO 205 colon = system: COLO 205 colon
SF-268 CNS = system: SF-268 CNS
IGROV1 ovarian = system: IGROV1 ovarian
SK-OV-3 ovarian = system: SK-OV-3 ovarian
HCC-2998 colon = system: HCC-2998 colon
RXF-631 renal = system: RXF-631 renal
OVCAR-4 ovarian = system: OVCAR-4 ovarian
SN12C renal = system: SN12C renal
SR leukemia = system: SR leukemia
HL-60(TB) leukemia = system: HL-60(TB) leukemia
MALME-3M melanoma = system: MALME-3M melanoma
HCT-116 colon = system: HCT-116 colon
SK-MEL-2 melanoma = system: SK-MEL-2 melanoma
SW-620 colon = system: SW-620 colon
EKVX NSCLC = system: EKVX NSCLC
UO-31 renal = system: UO-31 renal
SNB-78 CNS = system: SNB-78 CNS
SK-MEL-5 melanoma = system: SK-MEL-5 melanoma
MOLT-4 leukemia = system: MOLT-4 leukemia
RPMI-8226 leukemia = system: RPMI-8226 leukemia
SNB-75 CNS = system: SNB-75 CNS
M14 melanoma = system: M14 melanoma
SF-295 CNS = system: SF-295 CNS
ACHN renal = system: ACHN renal
UACC-62 melanoma = system: UACC-62 melanoma
HT29 colon = system: HT29 colon
A498 renal = system: A498 renal
RXF 393 renal = system: RXF 393 renal
NCI-H23 lung = system: NCI-H23 lung
NCI-H522 lung = system: NCI-H522 lung
786-0 renal = system: 786-0 renal
OVCAR-3 ovarian = system: OVCAR-3 ovarian
HOP-92 NSCLC = system: HOP-92 NSCLC
HOP-62 NSCLC = system: HOP-62 NSCLC

CNc1ccccc1-c1nc2ccccc2c(=O)o1
97.6 µM: TGI (SNB-75 CNS)
> 100 µM: TGI (SF-539 CNS) | TGI (U251 CNS) | TGI (M19-MEL melanoma) | TGI (LXFL 529 NSCLC) | TGI (LOX IMVI melanoma) | TGI (SK-MEL-28 melanoma) | TGI (UACC-257 melanoma) | TGI (CAKI-1 renal) | TGI (DMS 114 small cell lung) | TGI (XF 498 CNS) | TGI (KM20L2 colon) | TGI (K-562 leukemia) | TGI (DMS 273 small cell lung) | TGI (OVCAR-5 ovarian) | TGI (OVCAR-8 ovarian) | TGI (NCI-H460 lung) | TGI (HOP-18 NSCLC) | TGI (SNB-19 CNS) | TGI (DLD-1 colon) | TGI (TK-10 renal) | TGI (CCRF-CEM leukemia) | TGI (A549 NSCLC) | TGI (KM12 colon) | TGI (NCI-H226 lung) | TGI (HCT-15 colon) | TGI (COLO 205 colon) | TGI (SF-268 CNS) | TGI (IGROV1 ovarian) | TGI (SK-OV-3 ovarian) | TGI (HCC-2998 colon) | TGI (RXF-631 renal) | TGI (OVCAR-4 ovarian) | TGI (SN12C renal) | TGI (SR leukemia) | TGI (HL-60(TB) leukemia) | TGI (MALME-3M melanoma) | TGI (HCT-116 colon) | TGI (SK-MEL-2 melanoma) | TGI (SW-620 colon) | TGI (EKVX NSCLC) | TGI (UO-31 renal) | TGI (SNB-78 CNS) | TGI (SK-MEL-5 melanoma) | TGI (MOLT-4 leukemia) | TGI (RPMI-8226 leukemia) | TGI (M14 melanoma) | TGI (SF-295 CNS) | TGI (ACHN renal)

COC1OC(COC(C)=O)C(OC(C)=O)C(OC(C)=O)C1NC(=O)N(CCCl)N=O (stereo unspecified)
> 100 µM: TGI (M19-MEL melanoma) | TGI (LXFL 529 NSCLC) | TGI (LOX IMVI melanoma) | TGI (SK-MEL-28 melanoma) | TGI (UACC-257 melanoma) | TGI (CAKI-1 renal) | TGI (UACC-62 melanoma) | TGI (HT29 colon) | TGI (DMS 114 small cell lung) | TGI (XF 498 CNS) | TGI (KM20L2 colon) | TGI (K-562 leukemia) | TGI (DMS 273 small cell lung) | TGI (OVCAR-5 ovarian) | TGI (A498 renal) | TGI (OVCAR-8 ovarian) | TGI (RXF 393 renal) | TGI (NCI-H460 lung) | TGI (NCI-H23 lung) | TGI (HOP-18 NSCLC) | TGI (SNB-19 CNS) | TGI (DLD-1 colon) | TGI (TK-10 renal) | TGI (CCRF-CEM leukemia) | TGI (NCI-H522 lung) | TGI (A549 NSCLC) | TGI (KM12 colon) | TGI (NCI-H226 lung) | TGI (COLO 205 colon) | TGI (SF-268 CNS) | TGI (IGROV1 ovarian) | TGI (786-0 renal) | TGI (SK-OV-3 ovarian) | TGI (HCC-2998 colon) | TGI (RXF-631 renal) | TGI (OVCAR-4 ovarian) | TGI (SN12C renal) | TGI (OVCAR-3 ovarian) | TGI (MALME-3M melanoma) | TGI (HCT-116 colon) | TGI (SK-MEL-2 melanoma) | TGI (SW-620 colon) | TGI (EKVX NSCLC) | TGI (SNB-78 CNS) | TGI (SK-MEL-5 melanoma) | TGI (MOLT-4 leukemia) | TGI (SNB-75 CNS) | TGI (M14 melanoma) | TGI (SF-295 CNS) | TGI (ACHN renal)
inactive: GI50 (SF-539 CNS) > 100 µM and 24.7 µM | GI50 (CCRF-CEM leukemia) 15.2 µM and 90.3 µM | GI50 (MOLT-4 leukemia) 26.2 µM and > 100 µM
74 µM and > 100 µM: TGI (HL-60(TB) leukemia)
> 100 µM and 91.7 µM: TGI (SF-539 CNS)

Clc1cccc(Cl)c1C1SCc2nc3ccccc3n21 (stereo unspecified)
67 µM: TGI (SK-MEL-5 melanoma)
41.7 µM: TGI (RXF-631 renal)
> 100 µM: TGI (SF-539 CNS) | TGI (U251 CNS) | TGI (M19-MEL melanoma) | TGI (LXFL 529 NSCLC) | TGI (LOX IMVI melanoma) | TGI (UACC-257 melanoma) | TGI (CAKI-1 renal) | TGI (UACC-62 melanoma) | TGI (HT29 colon) | TGI (DMS 114 small cell lung) | TGI (XF 498 CNS) | TGI (KM20L2 colon) | TGI (K-562 leukemia) | TGI (DMS 273 small cell lung) | TGI (OVCAR-5 ovarian) | TGI (A498 renal) | TGI (OVCAR-8 ovarian) | TGI (RXF 393 renal) | TGI (NCI-H460 lung) | TGI (NCI-H23 lung) | TGI (HOP-18 NSCLC) | TGI (HOP-92 NSCLC) | TGI (SNB-19 CNS) | TGI (DLD-1 colon) | TGI (TK-10 renal) | TGI (CCRF-CEM leukemia) | TGI (NCI-H522 lung) | TGI (A549 NSCLC) | TGI (KM12 colon) | TGI (NCI-H226 lung) | TGI (HCT-15 colon) | TGI (COLO 205 colon) | TGI (SF-268 CNS) | TGI (IGROV1 ovarian) | TGI (786-0 renal) | TGI (SK-OV-3 ovarian) | TGI (HCC-2998 colon) | TGI (OVCAR-4 ovarian) | TGI (SN12C renal) | TGI (SR leukemia) | TGI (OVCAR-3 ovarian) | TGI (HOP-62 NSCLC) | TGI (HL-60(TB) leukemia) | TGI (MALME-3M melanoma) | TGI (HCT-116 colon) | TGI (SW-620 colon) | TGI (EKVX NSCLC) | TGI (UO-31 renal) | TGI (SNB-78 CNS) | TGI (MOLT-4 leukemia) | TGI (RPMI-8226 leukemia) | TGI (SNB-75 CNS) | TGI (M14 melanoma) | TGI (SF-295 CNS) | TGI (ACHN renal)
